{"source": "patent US20040072746A1", "about": "“Inhibitors of monocarboxylate transport” (priority 2001, published 2004)", "key": {"human MCT4": {"target": "T1, human MCT4 (Homo sapiens, UniProt O15427)", "T1 construct": "from the full length copy and subcloned into the S. cerevisiae expression plasmid pACES14; made in house; host or cells: Saccharomyces cerevisiae BY4742 (jen1 deletion), membrane preparation; plasmid pACES14-hMCT4", "T1 sequence (O15427 1-465)": "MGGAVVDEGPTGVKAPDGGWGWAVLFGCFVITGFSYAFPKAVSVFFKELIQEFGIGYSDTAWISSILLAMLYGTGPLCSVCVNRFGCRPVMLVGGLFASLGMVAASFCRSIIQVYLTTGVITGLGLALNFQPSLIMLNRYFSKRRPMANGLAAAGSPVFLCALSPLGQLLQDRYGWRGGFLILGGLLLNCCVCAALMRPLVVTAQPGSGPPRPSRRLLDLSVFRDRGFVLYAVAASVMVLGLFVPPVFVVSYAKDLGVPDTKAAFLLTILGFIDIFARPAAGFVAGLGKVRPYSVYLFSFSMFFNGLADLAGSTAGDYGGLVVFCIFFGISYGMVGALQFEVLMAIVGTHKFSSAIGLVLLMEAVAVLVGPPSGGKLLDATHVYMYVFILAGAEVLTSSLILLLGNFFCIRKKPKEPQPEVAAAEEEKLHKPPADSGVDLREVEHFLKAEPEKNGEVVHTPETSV", "assay": "MCT filter binding assay, yeast membranes, radioligand specific binding", "settings": "~2.5 nM radioligand", "description": "(§1) For yeast cells transformed with expression plasmids containing the human MCT 1-4 ORFs the ability of membrane preparations to bind radioligand was determined using a single ligand concentration/multi protein concentration binding assay. This generated an estimate of the amount of active binding protein present in each membrane preparation. The ligand concentration used will give an estimate of Bmax that is approximately 90% of the true value. 10 μl of ligand A, B or C that had been diluted 50 fold with assay buffer (50 mM HEPES, 0.1 mM EDTA, 0.15 M NaCl, pH 7.5, 0.5% BSA) was dispensed into wells of a polypropylene microtitre plate. This gives a final radiolabelled ligand concentration of ˜2.5 nM. […] The membranes were diluted to give a known amount/180 μl assay buffer. This is typically in the […] range. For the membranes with high binding site number a more dilute membrane preparation should be added. 180 μl of each membrane solution was then added to each well and incubated at 2 hours at room temperature with shaking. The membranes were harvested onto GF-B filter plates and washed with assay buffer without BSA, dried, scintillant added and counts detected using the relevant program for each ligand on a Packard Top Count plate reader."}, "human MCT2": {"target": "T2, human MCT2 (Homo sapiens, UniProt O60669)", "T2 construct": "The full length open reading frame for human MCT2 was then subcloned into the S. cerevisiae expression plasmid, pACES14; made in house; host or cells: Saccharomyces cerevisiae BY4742 (jen1 deletion), membrane preparation; plasmid pACES14-hMCT2", "T2 sequence (O60669 1-478)": "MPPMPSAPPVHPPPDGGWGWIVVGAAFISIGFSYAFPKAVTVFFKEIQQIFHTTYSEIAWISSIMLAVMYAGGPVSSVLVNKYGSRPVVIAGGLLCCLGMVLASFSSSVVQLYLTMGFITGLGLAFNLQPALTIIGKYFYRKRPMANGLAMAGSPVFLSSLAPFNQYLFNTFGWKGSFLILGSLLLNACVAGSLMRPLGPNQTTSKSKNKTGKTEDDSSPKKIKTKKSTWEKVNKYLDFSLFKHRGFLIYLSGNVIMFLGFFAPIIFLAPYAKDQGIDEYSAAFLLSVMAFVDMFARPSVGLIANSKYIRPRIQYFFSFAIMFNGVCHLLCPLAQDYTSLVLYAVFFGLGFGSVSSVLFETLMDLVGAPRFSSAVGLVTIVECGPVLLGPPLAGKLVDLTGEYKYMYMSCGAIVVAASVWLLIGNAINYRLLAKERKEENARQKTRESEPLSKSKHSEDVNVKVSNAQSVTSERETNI", "assay": "MCT filter binding assay, yeast membranes, radioligand specific binding", "settings": "~2.5 nM radioligand", "description": "as §1"}}, "data": [{"smiles": "CC(C)Cc1nn(C)c(=O)c2c(SCCCO)n(Cc3ccccc3[125I])cc12", "note": "[Ligand A, 2,6-Dihydro-7-[(3-hydroxypropyl)thio]-6-[(2-[^125I]iodophenyl)methyl]-2-methyl-4-(2-methylpropyl)-1H-pyrrolo[3,4-d]pyridazin-1-one]", "values": [{"measurement": "Specific binding (cpm) Average", "setting": "human MCT4; MCT4 (2 ug)", "value": 405, "unit": "cpm"}, {"measurement": "Specific binding (cpm) Average", "setting": "human MCT4; MCT4 (20 ug)", "value": 872, "unit": "cpm"}, {"measurement": "Specific binding (cpm) Average", "setting": "human MCT2; MCT2 (2 ug)", "value": 7286, "unit": "cpm"}, {"measurement": "Specific binding (cpm) Average", "setting": "human MCT2; MCT2 (20 ug)", "value": 14769, "unit": "cpm"}]}]}
